“And” between values parts separate entries of the source, which are not always exact repeats. Equal entries are not always repeated. Toxic doses and inconclusive results are not listed.

Consider 12 molecules from PubChem BioAssay AID286 (DTP/NCI, 2004).

The subject of the assay is BDF1 mice, M5076 sarcoma ip, median survival T/C. Briefly: NCI In Vivo Anticancer Drug Screen. Data for tumor model Sarcoma M5076 (intraperitoneal) in B6D2F1 (BDF1) mice. Particulars: endpoint: median survival time, higher = longer survival. The method, then: The antitumor activity of compounds was measured in mice bearing transplantable tumors. Survival or tumor size were measured and the results are expressed as the measurement made in the treated group (T) divided by the measurement made in the vehicle treated control group (C). The tumor model used in this assay is Sarcoma M5076 (intraperitoneal) in B6D2F1 (BDF1) mice

Setting [1] is: dose: 50.0 mg/kg/injection, schedule: Q04DX004 (ip), vehicle: saline.
[2] abbreviates: dose: 100.0 mg/kg/injection, schedule: Q04DX004 (ip), vehicle: saline.

Turning to `CCCCCCCCCCCCCCCC(=O)O[C@@H]1[C@@H](C)[C@@]2(O)[C@@H](C=C(CO)C[C@]3(O)C(=O)C(C)=C[C@@H]23)[C@H]2[C@]1(OC(C)=O)[C@]2(C)CO`, the T/C by setting is: (dose: 62.5 micrograms/kg/injection, schedule: Q01DX009 (ip), vehicle: distilled water + Tween-80) 117 % of control; (dose: 125.0 micrograms/kg/injection, schedule: Q01DX009 (ip), vehicle: distilled water + Tween-80) 121 % of control; (dose: 250.0 micrograms/kg/injection, schedule: Q01DX009 (ip), vehicle: distilled water + Tween-80) 122 % of control.
With `CC(=O)N(C)O`, the T/C is, setting by setting: (dose: 37.0 mg/kg/injection, schedule: Q04DX004 (ip), vehicle: saline with Tween-80) 99 % of control; (dose: 75.0 mg/kg/injection, schedule: Q04DX004 (ip), vehicle: saline with Tween-80) 107 % of control; (dose: 150.0 mg/kg/injection, schedule: Q04DX004 (ip), vehicle: saline with Tween-80) 107 % of control; (dose: 300.0 mg/kg/injection, schedule: Q04DX004 (ip), vehicle: saline with Tween-80) 113 % of control; (dose: 600.0 mg/kg/injection, schedule: Q04DX004 (ip), vehicle: saline with Tween-80) 103 % of control.
`CCOC(=O)C(N)CSC(=O)NC` (centres undefined): the T/C is 103 % of control (dose: 75.0 mg/kg/injection, schedule: Q04DX004 (ip), vehicle: saline); 109 % of control (dose: 150.0 mg/kg/injection, schedule: Q04DX004 (ip), vehicle: saline); 110 % of control (dose: 300.0 mg/kg/injection, schedule: Q04DX004 (ip), vehicle: saline); 178 % of control (dose: 600.0 mg/kg/injection, schedule: Q04DX004 (ip), vehicle: saline).
As for `CC(=O)/C(=C\c1ccc(Cl)c(Cl)c1)C(=O)CCN(C)C`, the T/C is 100 % of control (dose: 12.5 mg/kg/injection, schedule: Q04DX004 (ip), vehicle: saline); 97 % of control (dose: 25.0 mg/kg/injection, schedule: Q04DX004 (ip), vehicle: saline); 101 % of control under setting [1]; 86 % of control under setting [2].
Regarding `CC(=O)OCc1cc(=O)n(C)c2c3c4c(cc12)c(C)cc(=O)n4CO3`, the T/C is 102 % of control (dose: 4.0 mg/kg/injection, schedule: Q01DX009 (ip), vehicle: Klucel (hydroxypropylcellulose) (HPC)); 102 % of control (dose: 5.0 mg/kg/injection, schedule: Q04DX005 (ip), vehicle: Klucel (hydroxypropylcellulose) (HPC)); 100 % of control (dose: 8.0 mg/kg/injection, schedule: Q01DX009 (ip), vehicle: Klucel (hydroxypropylcellulose) (HPC)); 100 % of control (dose: 10.0 mg/kg/injection, schedule: Q04DX005 (ip), vehicle: Klucel (hydroxypropylcellulose) (HPC)); 99 % of control (dose: 16.0 mg/kg/injection, schedule: Q01DX009 (ip), vehicle: Klucel (hydroxypropylcellulose) (HPC)); 165 % of control (dose: 20.0 mg/kg/injection, schedule: Q01DX009 (ip), vehicle: Klucel (hydroxypropylcellulose) (HPC)). Besides, the T/C is 116 % of control and 118 % of control (dose: 20.0 mg/kg/injection, schedule: Q04DX005 (ip), vehicle: Klucel (hydroxypropylcellulose) (HPC)); 99 % of control (dose: 32.0 mg/kg/injection, schedule: Q01DX009 (ip), vehicle: Klucel (hydroxypropylcellulose) (HPC)); 179 % of control (dose: 40.0 mg/kg/injection, schedule: Q01DX009 (ip), vehicle: Klucel (hydroxypropylcellulose) (HPC)); 102 % of control (dose: 40.0 mg/kg/injection, schedule: Q04DX005 (ip), vehicle: Klucel (hydroxypropylcellulose) (HPC)); 103 % of control (dose: 64.0 mg/kg/injection, schedule: Q01DX009 (ip), vehicle: Klucel (hydroxypropylcellulose) (HPC)); 92 % of control and 95 % of control (dose: 80.0 mg/kg/injection, schedule: Q04DX005 (ip), vehicle: Klucel (hydroxypropylcellulose) (HPC)).
As to `CCN(CC)CCNc1ccc(C)c2sc3ccccc3c(=O)c12`, the T/C runs as follows: (dose: 5.0 mg/kg/injection, schedule: Q04DX004 (ip), vehicle: water) 113 % of control; (dose: 10.0 mg/kg/injection, schedule: Q04DX004 (ip), vehicle: water) 112 % of control; (dose: 20.0 mg/kg/injection, schedule: Q04DX004 (ip), vehicle: water) 103 % of control; (dose: 40.0 mg/kg/injection, schedule: Q04DX004 (ip), vehicle: water) 112 % of control; (dose: 160.0 mg/kg/injection, schedule: Q04DX004 (ip), vehicle: water) 108 % of control.
For `O=P1(N(CCCl)CCCl)NCCCO1` (centres undefined), the T/C (dose: 10.0 mg/kg/injection, schedule: Q04DX005 (ip), vehicle: saline) is 180 % of control.
As for `COC(=O)Nc1ccc(Cc2ccc(NC(=O)OC)cc2)cc1`, the T/C is 89 % of control (dose: 50.0 mg/kg/injection, schedule: Q04DX004 (ip), vehicle: saline with Tween-80); 103 % of control (dose: 100.0 mg/kg/injection, schedule: Q04DX004 (ip), vehicle: saline with Tween-80); 118 % of control (dose: 200.0 mg/kg/injection, schedule: Q04DX004 (ip), vehicle: saline with Tween-80); 185 % of control (dose: 400.0 mg/kg/injection, schedule: Q04DX004 (ip), vehicle: saline with Tween-80).
Consider `CNc1nc(N(C)C)nc(N(C)C)n1`, for which the T/C runs as follows: under setting [1], 114 % of control; under setting [2], 119 % of control; (dose: 200.0 mg/kg/injection, schedule: Q04DX004 (ip), vehicle: saline) 123 % of control.
For the molecule `Nc1nc2c(c(=O)[nH]1)N(C=O)C(CNc1ccc(C(=O)N[C@@H](CCC(=O)O)C(=O)O)cc1)CN2` (some centres undefined), the T/C is, setting by setting: (dose: 50.0 mg/kg/injection, schedule: Q01DX009 (ip), vehicle: sodium bicarbonate) 96 % of control; (dose: 100.0 mg/kg/injection, schedule: Q01DX009 (ip), vehicle: sodium bicarbonate) 86 % of control; (dose: 200.0 mg/kg/injection, schedule: Q01DX009 (ip), vehicle: sodium bicarbonate) 94 % of control.
Consider `C[C@@]12C(=O)OC(=O)[C@]1(C)[C@H]1CC[C@@H]2O1`, for which the T/C (dose: 0.25 mg/kg/injection, schedule: Q01DX009 (ip), vehicle: acetone) was 115 % of control; the T/C (dose: 0.5 mg/kg/injection, schedule: Q01DX009 (ip), vehicle: acetone) was 120 % of control; the T/C (dose: 62.5 micrograms/kg/injection, schedule: Q01DX009 (ip), vehicle: acetone) is 113 % of control; the T/C (dose: 250.0 micrograms/kg/injection, schedule: Q01DX009 (ip), vehicle: acetone) is 115 % of control; the T/C (dose: 1000.0 micrograms/kg/injection, schedule: Q01DX009 (ip), vehicle: acetone) was 150 % of control.
For `CN=C(N)c1ccc(N=C(N)c2ccc(C(N)=Nc3ccc(C(N)=NC)cc3)cc2)cc1`, the T/C (dose: 1.3 mg/kg/injection, schedule: Q01DX005 (iv), vehicle: saline) is 98 % of control; the T/C (dose: 1.3 mg/kg/injection, schedule: Q01DX005 (iv), vehicle: water) was 100 % of control; the T/C (dose: 3.6 mg/kg/injection, schedule: Q01DX005 (iv), vehicle: saline) was 104 % of control; the T/C (dose: 3.6 mg/kg/injection, schedule: Q01DX005 (iv), vehicle: water) is 100 % of control; the T/C (dose: 3.75 mg/kg/injection, schedule: Q01DX005 (iv), vehicle: water) was 99 % of control; the T/C (dose: 3.75 mg/kg/injection, schedule: Q01DX005 (sc), vehicle: water) is 101 % of control. For the same molecule, the T/C by setting is: (dose: 6.0 mg/kg/injection, schedule: Q01DX005 (iv), vehicle: saline) 104 % of control; (dose: 6.0 mg/kg/injection, schedule: Q01DX005 (iv), vehicle: water) 99 % of control; (dose: 7.5 mg/kg/injection, schedule: Q01DX005 (iv), vehicle: water) 108 % of control; (dose: 15.0 mg/kg/injection, schedule: Q01DX005 (ip), vehicle: water) 165 % of control; (dose: 15.0 mg/kg/injection, schedule: Q01DX005 (sc), vehicle: water) 120 % of control; (dose: 18.0 mg/kg/injection, schedule: Q01DX005 (ip), vehicle: saline) 164 % of control. For the same molecule, the T/C is 164 % of control (dose: 18.0 mg/kg/injection, schedule: Q01DX005 (ip), vehicle: water); 180 % of control (dose: 30.0 mg/kg/injection, schedule: Q01DX005 (ip), vehicle: saline); 172 % of control (dose: 30.0 mg/kg/injection, schedule: Q01DX005 (ip), vehicle: water).
